Key:
Format in all cases: in vivo
Kochia (Kochia scoparia) [1] = experiment: Test A preemergence; settings: for Plant response rating, Kochia: 125 g ai/ha; for Kochia plant response rating (0 to 100 scale, 0 is no effect, 100 is complete control): 500 g ai/ha, visual injury approx. 10 d
In short: (§1)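 Preemergence soil spray on seeded pots or post-emergence spray on 1–2 leaf plants, in loam–sand blend. Greenhouse ~10 d. Visual rating 0–100 against untreated plants.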

[2] = system: barnyardgrass (Echinochloa crus-galli); experiment: Test A preemergence; settings: for Plant response rating, Barnyardgrass: 125 g ai/ha; for Barnyardgrass plant response rating (0 to 100 scale, 0 is no effect, 100 is complete control): 500 g ai/ha, visual injury approx. 10 d
In short: as §1

[3] = system: giant foxtail (Setaria faberii); experiment: Test A preemergence; settings: for Plant response rating, Foxtail, Giant: 125 g ai/ha; for Foxtail, Giant plant response rating (0 to 100 scale, 0 is no effect, 100 is complete control): 500 g ai/ha, visual injury approx. 10 d
In short: as §1

[4] = system: pigweed (Amaranthus retroflexus); experiment: Test A preemergence; settings: Preemergence; for Plant response rating, Pigweed: 125 g ai/ha, visual injury after approximately 10 d, 0 to 100 scale where 0 is no effect and 100 is complete control; for Pigweed plant response rating (0 to 100 scale, 0 is no effect, 100 is complete control): 500 g ai/ha, visual injury approx. 10 d
[5] = system: ragweed (common ragweed, Ambrosia elatior); experiment: Test A preemergence; settings: Preemergence; for Plant response rating, Ragweed: 125 g ai/ha, visual injury after approximately 10 d, 0 to 100 scale where 0 is no effect and 100 is complete control; for Ragweed plant response rating (0 to 100 scale, 0 is no effect, 100 is complete control): 500 g ai/ha, visual injury approx. 10 d
In short: as §1

[6] = system: ryegrass, Italian (Italian ryegrass, Lolium multiflorum); experiment: Test A preemergence; settings: Preemergence; for Plant response rating, Ryegrass, Italian: 125 g ai/ha, visual injury after approximately 10 d, 0 to 100 scale where 0 is no effect and 100 is complete control; for Ryegrass, Italian plant response rating (0 to 100 scale, 0 is no effect, 100 is complete control): 500 g ai/ha, visual injury approx. 10 d
In short: as §1

[7] = system: Galium (catchweed bedstraw, Galium aparine); experiment: Test A postemergence
In short: as §1

Kochia (Kochia scoparia) [8] = experiment: Test A postemergence
In short: as §1

[9] = system: barnyardgrass (Echinochloa crus-galli); experiment: Test A postemergence
In short: as §1

[10] = system: blackgrass (Alopecurus myosuroides); experiment: Test A postemergence
In short: as §1

corn (Zea mays) = experiment: Test A postemergence
In short: as §1

[11] = system: giant foxtail (Setaria faberii); experiment: Test A postemergence
In short: as §1

[12] = system: pigweed (Amaranthus retroflexus); experiment: Test A postemergence
In short: as §1

[13] = system: ragweed (common ragweed, Ambrosia elatior); experiment: Test A postemergence
In short: as §1

[14] = system: ryegrass, Italian (Italian ryegrass, Lolium multiflorum); experiment: Test A postemergence
In short: as §1

[15] = system: wheat (Triticum aestivum); experiment: Test A postemergence
In short: as §1

[16] = system: barnyardgrass (Echinochloa crus-galli); experiment: Test B flooded paddy test; settings: Flood, 250 g ai/ha; 0 to 100 scale where 0 is no effect and 100 is complete control; 13 to 15 d
In short: (§2)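 Percent control, visually estimated after 13–15 d in the greenhouse on a 0–100 basis, compares treated pots with untreated ones; compound was put into paddy water 3 cm above the soil when plants had two leaves.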

[17] = system: ducksalad (Heteranthera limosa); experiment: Test B flooded paddy test; settings: Flood, 250 g ai/ha; 0 to 100 scale where 0 is no effect and 100 is complete control; 13 to 15 d
In short: as §2

rice (Oryra sativa) = experiment: Test B flooded paddy test; settings: Flood, 250 g ai/ha; 0 to 100 scale where 0 is no effect and 100 is complete control; 13 to 15 d
In short: as §2

[18] = system: sedge, umbrella (small-flower umbrella sedge, Cyperus difformis); experiment: Test B flooded paddy test; settings: Flood, 250 g ai/ha; 0 to 100 scale where 0 is no effect and 100 is complete control; 13 to 15 d
In short: as §2

[19] = preemergence, 0 to 100 scale (0 no effect, 100 complete control)
[20] = 125 g ai/ha, postemergence, visual injury rating on 0 to 100 scale (0 no effect, 100 complete control), approx. 10 d
[21] = Postemergence, 500 g ai/ha, 0 to 100 scale where 0 is no effect and 100 is complete control
[22] = 500 g ai/ha, postemergence, 0 to 100 scale, 0 no effect, 100 complete control
[23] = Preemergence, visual injury after approximately 10 d, 0 to 100 scale where 0 is no effect and 100 is complete control
[24] = 125 g ai/ha, postemergence, visual rating after approx. 10 d, 0 to 100 scale (0 no effect, 100 complete control)

| SMILES | Kochia plant response rating (0 to 100 scale, 0 is no effect, 100 is complete control) (Kochia (Kochia scoparia) [1]; Preemergence) | Barnyardgrass plant response rating (0 to 100 scale, 0 is no effect, 100 is complete control) ([2]; Preemergence) | Foxtail, Giant plant response rating (0 to 100 scale, 0 is no effect, 100 is complete control) ([3]; Preemergence) | Plant response rating, Pigweed [4] | Pigweed plant response rating (0 to 100 scale, 0 is no effect, 100 is complete control) [4] | Plant response rating, Ragweed [5] | Ragweed plant response rating (0 to 100 scale, 0 is no effect, 100 is complete control) [5] | Plant response rating, Ryegrass, Italian [6] | Ryegrass, Italian plant response rating (0 to 100 scale, 0 is no effect, 100 is complete control) [6] | Plant response rating, Galium [7, 21] | Plant response rating, Kochia (Kochia (Kochia scoparia) [8]; [21]) | Plant response rating, Foxtail, Giant [11, 21] | Plant response rating, Pigweed [12, 21] | Plant response rating, Ragweed [13, 21] | Plant response rating, Ryegrass, Italian [14, 21] | Plant response rating, Wheat [15, 21] | Plant response rating, Barnyardgrass [16] | Plant response rating, Ducksalad [17] | Plant response rating, Rice (rice (Oryra sativa)) | Plant response rating, Sedge, Umbrella [18] | other results |
| --- | --- | --- | --- | --- | --- | --- | --- | --- | --- | --- | --- | --- | --- | --- | --- | --- | --- | --- | --- | --- | --- |
| CCc1ccc(C2CNC(=O)C2C(=O)Nc2cccc(F)c2F)cc1 (stereo not drawn) [Compound 467] | 50 | 90 | 100 | 0 | 0 | 30 | 70 | 0 | 20 | 0 | 0 | 80 | 0 | 20 | 40 | 30 | 20 | 80 | 0 | 0 | Plant response rating, Kochia (Kochia (Kochia scoparia) [1]; [19]): 30; Plant response rating, Barnyardgrass [2, 19]: 90; Plant response rating, Foxtail, Giant [3, 19]: 90; Galium plant response rating [7, 20]: 0; Kochia plant response rating (Kochia (Kochia scoparia) [8]; [20]): 0; Barnyardgrass plant response rating [9, 20]: 80; Plant response rating, Barnyardgrass [9, 22]: 90; Blackgrass plant response rating [10, 20]: 0; Plant response rating, Blackgrass [10, 22]: 0; Corn plant response rating (corn (Zea mays); [20]): 0; Plant response rating, Corn (corn (Zea mays); [22]): 20; Foxtail, Giant plant response rating [11, 20]: 40; Pigweed plant response rating [12, 20]: 0; Ragweed plant response rating [13, 20]: 0; Ryegrass, Italian plant response rating [14, 20]: 0; Wheat plant response rating [15, 20]: 0 |
| O=C(Nc1ccccc1F)C1C(=O)N(c2ccc([N+](=O)[O-])cc2)CC1c1cccc(C(F)(F)F)c1 (stereo not drawn) [Compound 602] | 0 | 0 | 0 | 0 | 0 | 0 | 0 | 0 | 0 | 0 | 0 | 0 | 0 | 0 | 0 | 0 | 0 | 30 | 0 | 0 | Plant response rating, Kochia (Kochia (Kochia scoparia) [1]; [23]): 0; Plant response rating, Barnyardgrass [2, 23]: 0; Plant response rating, Foxtail, Giant [3, 23]: 0; Plant response rating, Galium [7, 24]: 0; Plant response rating, Kochia (Kochia (Kochia scoparia) [8]; [24]): 0; Plant response rating, Barnyardgrass [9, 24]: 0; Plant response rating, Barnyardgrass [9, 21]: 0; Plant response rating, Blackgrass [10, 24]: 0; Plant response rating, Blackgrass [10, 21]: 0; Plant response rating, Corn (corn (Zea mays); [24]): 0; Plant response rating, Corn (corn (Zea mays); [21]): 0; Plant response rating, Foxtail, Giant [11, 24]: 0; Plant response rating, Pigweed [12, 24]: 0; Plant response rating, Ragweed [13, 24]: 0; Plant response rating, Ryegrass, Italian [14, 24]: 0; Plant response rating, Wheat [15, 24]: 0 |
